Biological target: T1, calcium-independent phospholipase A2γ (iPLA2γ) (Homo sapiens, UniProt Q9NP80)
T1 construct: gene PNPLA8; 63 kDa recombinant human peroxisomal isoform, N-terminal (His)6 tag
T1 sequence (Q9NP80 221-782 limits assumed): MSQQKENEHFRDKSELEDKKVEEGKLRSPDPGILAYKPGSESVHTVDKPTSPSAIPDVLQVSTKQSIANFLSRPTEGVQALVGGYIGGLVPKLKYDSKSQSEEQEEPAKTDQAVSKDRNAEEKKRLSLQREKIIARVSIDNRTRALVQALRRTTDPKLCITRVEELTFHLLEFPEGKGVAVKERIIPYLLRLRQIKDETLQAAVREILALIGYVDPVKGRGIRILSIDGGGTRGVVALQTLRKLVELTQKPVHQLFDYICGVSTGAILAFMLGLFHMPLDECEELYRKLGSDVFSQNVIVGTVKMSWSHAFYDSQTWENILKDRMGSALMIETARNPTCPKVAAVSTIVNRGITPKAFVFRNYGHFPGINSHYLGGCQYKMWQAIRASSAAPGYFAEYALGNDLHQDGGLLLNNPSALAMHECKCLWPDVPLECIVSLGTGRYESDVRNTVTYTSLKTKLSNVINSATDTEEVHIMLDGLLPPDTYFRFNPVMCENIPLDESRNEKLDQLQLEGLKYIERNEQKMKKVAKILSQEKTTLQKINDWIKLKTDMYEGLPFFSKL
Assay: purified recombinant PLA2 activity assay (PAPC/diolein SUVs), LPC production by ESI-MS
Format: biochemical

IC50: ~1.75 nM
Structure (SMILES): C[N+](C)(C)C[C@@H](CC(=O)O)OC(=O)[C@@]1(CCCCCCOc2ccc(Cl)cc2)CO1 [ETO-carnitine, (R)-3-carboxy-2-(((R)-2-(6-(4-chlorophenoxy)hexyl)oxirane-2-carbonyl)oxy)-N,N,N-trimethylpropan-1-aminium]

From paper PMC11402452, “Etomoxir-carnitine, a novel pharmaco-metabolite of etomoxir, inhibits phospholipases A2 and mitochondrial respiration” (Journal of Lipid Research, 2024)
